Where a name gives a salt, the structure may show the parent alone. Read-outs that look alike come from different tables or passages of the source.
What was measured:
[1] = Solubility in buffers at pH 1.0, 1.2, 4.5, 6.8 and 7.5; assay type: physicochemical; settings: for Solubility pH = 1.0 (class) / Solubility pH = 1.0 (volume of solvent required for dissolution per gram of solute): buffer pH 1.0, KCl 0.2 M / HCl 0.2 M; for Solubility pH = 1.2 (class) / Solubility pH = 1.2 (volume of solvent required for dissolution per gram of solute): buffer pH 1.2, KCl 0.2 M / HCl 0.2 M; for Solubility pH = 4.5 (class) / Solubility pH = 4.5 (volume of solvent required for dissolution per gram of solute): buffer pH 4.5, potassium biphthalate 0.2 M / HCl 0.2 M; for Solubility pH = 6.8 (class) / Solubility pH = 6.8 (volume of solvent required for dissolution per gram of solute): buffer pH 6.8, monobasic potassium phosphate 0.2 M / NaOH 0.2 M; for Solubility pH = 7.5 (class) / Solubility pH = 7.5 (volume of solvent required for dissolution per gram of solute): buffer pH 7.5, monobasic potassium phosphate 0.2 M / NaOH 0.2 M
Procedure: The buffers at pH 1.0 and 1.2 were prepared with aqueous solutions of potassium chloride 0.2M and hydrochloric acid 0.2 M, the buffers at pH 6.8 and 7.5 were prepared with aqueous solutions of monobasic potassium phosphate 0.2 M and sodium hydroxide 0.2 M and the buffer at pH 4.5 with aqueous solutions of potassium biphthalate 0.2 M and hydrochloric acid 0.2 M, according to pharmacopoeia USP31.
The statement freely soluble means that the volume of solvent (required for dissolution) in ml per gram of solute is of from 1 to 10. The statement soluble means that the volume of solvent (required for dissolution) in ml per gram of solute is of from […]. The statement sparingly soluble means that the volume of solvent (required for dissolution) in ml per gram of solute is of from 30 to 100. The statement slightly soluble means that the volume of solvent (required for dissolution) in ml per gram of solute is of from 100 to 1000. The statement very slightly soluble means that the volume of solvent (required for dissolution) in ml per gram of solute is from 1000 to 10 000.

[2] = Color classification according to the Munsell color system; assay type: physicochemical; settings: for Munsell Classification: Munsell color system
Source text: The table below presents the color classification of the doxycycline salts according to the Munsell color system.

[3] = pH of aqueous solutions of the salts; settings: for pH: aqueous solution, concentration approximately 10^-3 M
[4] = background statement on the acidic salt; cited from earlier work

Compound | Solubility pH = 1.0 (volume of solvent required for dissolution per gram of solute) [1] | Solubility pH = 1.2 (volume of solvent required for dissolution per gram of solute) [1] | Solubility pH = 4.5 (volume of solvent required for dissolution per gram of solute) [1] | Solubility pH = 6.8 (volume of solvent required for dissolution per gram of solute) [1] | Solubility pH = 7.5 (volume of solvent required for dissolution per gram of solute) [1] | Color Description [2] | Munsell Classification [2] | Munsell Classification ([2]; listed as doxycycline hyclate) | pH [3] | Solubility pH = 1.0 (class) [1] | Solubility pH = 1.2 (class) [1] | Solubility pH = 4.5 (class) [1] | Solubility pH = 6.8 (class) [1] | Solubility pH = 7.5 (class) [1] | Solubility compared with doxycycline monohydrate ([1]; pH 4.5, pH 6.8 and pH 7.5) | Solubility compared with the hydrochloride / hyclate ([1]; pH 1.0, 1.2, 4.5, 6.8 and 7.5 (all pH values tested)) | Solubility compared with doxycycline monohydrate ([1]; pH 1.0 and pH 1.2) | pH compared with the marketed form ([3]; comparison of the values of the pH table) | pH [4]
CCO.C[C@H]1c2cccc(O)c2C(=O)C2=C(O)[C@]3(O)C(=O)C(C(N)=O)=C(O)[C@@H](N(C)C)[C@@H]3[C@@H](O)[C@@H]21.C[C@H]1c2cccc(O)c2C(=O)C2=C(O)[C@]3(O)C(=O)C(C(N)=O)=C(O)[C@@H](N(C)C)[C@@H]3[C@@H](O)[C@@H]21.Cl.Cl.O [Doxycycline Hyclate, reference compound] | 16 ml/g | 3 ml/g | 53 ml/g | 2 ml/g | 100 ml/g | Yellowish | 10Y 9/3.5 NN | yellowish 10Y |  | Soluble (The statement soluble means that the volume of solvent (required for dissolution) in ml per gram of solute is of from 1 to 30) | Freely soluble (The statement freely soluble means that the volume of solvent (required for dissolution) in ml per gram of solute is of from 1 to 10) | Sparingly (The statement sparingly soluble means that the volume of solvent (required for dissolution) in ml per gram of solute is of from 30 to 100) | Freely soluble (The statement freely soluble means that the volume of solvent (required for dissolution) in ml per gram of solute is of from 1 to 10) | Sparingly (The statement sparingly soluble means that the volume of solvent (required for dissolution) in ml per gram of solute is of from 30 to 100) |  |  |  |  | 
C[C@H]1c2cccc(O)c2C(O)=C2C(=O)[C@]3(O)C(O)=C(C(N)=O)C(=O)[C@@H](N(C)C)[C@@H]3[C@@H](O)[C@@H]21.O=C(O)C(=O)O [Doxycycline Oxalate] | 500 ml/g | 1900 ml/g | 500 ml/g | 125 ml/g | 143 ml/g | Yellowish | 5Y/9/4 NN |  | 3.2 | Slightly (The statement slightly soluble means that the volume of solvent (required for dissolution) in ml per gram of solute is of from 100 to 1000) | Very Slightly (The statement very slightly soluble means that the volume of solvent (required for dissolution) in ml per gram of solute is from 1000 to 10 000) | Slightly (The statement slightly soluble means that the volume of solvent (required for dissolution) in ml per gram of solute is of from 100 to 1000) | Slightly (The statement slightly soluble means that the volume of solvent (required for dissolution) in ml per gram of solute is of from 100 to 1000) | Slightly (The statement slightly soluble means that the volume of solvent (required for dissolution) in ml per gram of solute is of from 100 to 1000) | similar | lower than that of the hyclate | lower than that of the monohydrate |  | 
CN(C)C1C(O)=C(C(N)=O)C(=O)C2(O)C(O)=C3C(=O)c4c(O)cccc4C(C)(O)C3CC12.O=C(O)C(=O)O (stereo not shown) [Tetracycline Oxalate] |  |  |  |  |  | Yellowish | 10Y/9/8 NN |  | 3.2 |  |  |  |  |  |  |  |  | less acidic than the pH of tetracycline | 
CN(C)[C@@H]1C(O)=C(C(N)=O)C(=O)[C@@]2(O)C(O)=C3C(=O)c4c(O)cccc4[C@@](C)(O)[C@H]3C[C@@H]12 [Tetracycline] |  |  |  |  |  | Yellowish | 5Y/9/4 NN |  |  |  |  |  |  |  |  |  |  |  | 
C[C@H]1c2cccc(O)c2C(=O)C2=C(O)[C@]3(O)C(=O)C(C(N)=O)=C(O)[C@@H](N(C)C)[C@@H]3[C@@H](O)[C@@H]21 [doxycycline hydrochloride] |  |  |  |  |  |  |  |  |  |  |  |  |  |  |  |  |  |  | about 3
Demeclocycline Maleate |  |  |  |  |  | Yellowish | 5Y/9/2 NN |  | 3.4 | Soluble (The statement soluble means that the volume of solvent (required for dissolution) in ml per gram of solute is of from 1 to 30) | Soluble (The statement soluble means that the volume of solvent (required for dissolution) in ml per gram of solute is of from 1 to 30) | Sparingly (The statement sparingly soluble means that the volume of solvent (required for dissolution) in ml per gram of solute is of from 30 to 100) | Sparingly (The statement sparingly soluble means that the volume of solvent (required for dissolution) in ml per gram of solute is of from 30 to 100) | Sparingly (The statement sparingly soluble means that the volume of solvent (required for dissolution) in ml per gram of solute is of from 30 to 100) |  |  |  |  | 
Demeclocycline Oxalate |  |  |  |  |  | Yellowish | 5Y/9/2.5 NN |  | 3.3 |  |  |  |  |  |  |  |  |  | 

Now from value to compound, other results behind:

Solubility pH = 1.0 (volume of solvent required for dissolution per gram of solute) [1] | Solubility pH = 1.2 (volume of solvent required for dissolution per gram of solute) [1] | Solubility pH = 4.5 (volume of solvent required for dissolution per gram of solute) [1] | Solubility pH = 6.8 (volume of solvent required for dissolution per gram of solute) [1] | Solubility pH = 7.5 (volume of solvent required for dissolution per gram of solute) [1] | Color Description [2] | Munsell Classification [2] | Munsell Classification ([2]; listed as doxycycline hyclate) | pH [3] | Compound | Solubility pH = 1.0 (class) [1] | Solubility pH = 1.2 (class) [1] | Solubility pH = 4.5 (class) [1] | Solubility pH = 6.8 (class) [1] | Solubility pH = 7.5 (class) [1] | Solubility compared with doxycycline monohydrate ([1]; pH 4.5, pH 6.8 and pH 7.5) | Solubility compared with the hydrochloride / hyclate ([1]; pH 1.0, 1.2, 4.5, 6.8 and 7.5 (all pH values tested)) | Solubility compared with doxycycline monohydrate ([1]; pH 1.0 and pH 1.2) | pH compared with the marketed form ([3]; comparison of the values of the pH table) | pH [4]
13 ml/g | 13 ml/g | 63 ml/g | 83 ml/g | 77 ml/g | Off-white | 9.25/10Y/2.5 NN |  | 3.3 | CC1c2cccc(O)c2C(O)=C2C(=O)C3(O)C(O)=C(C(N)=O)C(=O)C(N(C)C)C3C(O)C21.O=C(O)C=CC(=O)O (stereo not shown) [Doxycycline Maleate] | Soluble (The statement soluble means that the volume of solvent (required for dissolution) in ml per gram of solute is of from 1 to 30) | Soluble (The statement soluble means that the volume of solvent (required for dissolution) in ml per gram of solute is of from 1 to 30) | Sparingly (The statement sparingly soluble means that the volume of solvent (required for dissolution) in ml per gram of solute is of from 30 to 100) | Sparingly (The statement sparingly soluble means that the volume of solvent (required for dissolution) in ml per gram of solute is of from 30 to 100) | Sparingly (The statement sparingly soluble means that the volume of solvent (required for dissolution) in ml per gram of solute is of from 30 to 100) | higher than that of the monohydrate |  |  |  | 
19 ml/g | 25 ml/g | 1000 ml/g | 333 ml/g | 1000 ml/g | Yellowish | 10Y/9/3.5 NN |  |  | C[C@H]1c2cccc(O)c2C(=O)C2=C(O)[C@]3(O)C(=O)C(C(N)=O)=C(O)[C@@H](N(C)C)[C@@H]3[C@@H](O)[C@@H]21 [Doxycycline Monohydrate, reference compound] | Soluble (The statement soluble means that the volume of solvent (required for dissolution) in ml per gram of solute is of from 1 to 30) | Soluble (The statement soluble means that the volume of solvent (required for dissolution) in ml per gram of solute is of from 1 to 30) | Slightly (The statement slightly soluble means that the volume of solvent (required for dissolution) in ml per gram of solute is of from 100 to 1000) | Slightly (The statement slightly soluble means that the volume of solvent (required for dissolution) in ml per gram of solute is of from 100 to 1000) | Slightly (The statement slightly soluble means that the volume of solvent (required for dissolution) in ml per gram of solute is of from 100 to 1000) |  |  |  |  | 
 |  |  |  |  | Yellowish | 7.5Y/9/10 NN |  | 6.8 | CN(C)c1ccc(O)c2c1C[C@H]1C[C@H]3[C@H](N(C)C)C(O)=C(C(N)=O)C(=O)[C@@]3(O)C(O)=C1C2=O [Minocycline Base, 7-dimethylamino-6-demethyl-6-deoxytetracycline, reference compound] |  |  |  |  |  |  |  |  |  | 
 |  |  |  |  | Yellowish | 10/Y/9/3.5 NN |  | 3.0 | Minocycline Oxalate |  |  |  |  |  |  |  |  |  | 
